According to patent publication US20040077878A1, “Process for the preparation of tri-nitrogen containing heteroaryl-diamine derivatives useful as pharmaceutical agents and methods of producing pharmaceutical agents” (priority 2002, published 2004):

Target: IMPDH II enzyme (Homo sapiens, UniProt P12268)
Experiment: assay against the IMPDH II enzyme
Assay type: biochemical
From the text: The present invention enables an efficient and effective production of 1,2,4-triazole-3,5-diamine and/or 1,3,5-triazine-2,4-diamine derivatives, which are useful as pharmaceutical agents and/or as components of pharmaceutical agents, particularly inhibitors of IMPDH, anti-hypertensive agents, and neurokinin receptor antagonists, from readily-available starting compounds. This process provides a convenient synthesis of the target compound from a substituted isothiocyanate, hydrogencyanamide salt, a substituted hydrazine and/or a substituted amidine in moderate to good yield. […] Additionally, tri-nitrogen containing heteroaryl-diamine derivatives of formula (I), 1,2,4-triazole-3,5-diamines of formula (A) and/or (B) and 1,3,5-triazine-2,4-diamines of formula (C) may be readily coupled to a pharmacological core component to provide pharmaceutically active agents, such as, for examples, the compounds described in WO 00/25780, Dunstan et al., Tetrahedron Lett., Vol. 39, (1998), at pp. 7983-7986, U.S. Pat. No. 6,436,928, U.S. patent application No. 20020038030, U.S. Pat. No. 6,172,077 B1, U.S. Pat. No. 5,232,938, U.S. Pat. No. 4,569,933, WO 01/74806A1, WO 01/56987 A1, and EP 1107962 A1, incorporated herein by reference.

IC50: 150 nM
SMILES: COc1cc(Nc2nc(N)n(-c3ccccc3)n2)ccc1-c1cnco1 [Example 13]
